Target: T1, Human recombinant CETP (Homo sapiens, UniProt P11597)
T1 construct: made in house; host or cells: CHO cells (serum-free conditioned medium)
T1 sequence (P11597 18-493): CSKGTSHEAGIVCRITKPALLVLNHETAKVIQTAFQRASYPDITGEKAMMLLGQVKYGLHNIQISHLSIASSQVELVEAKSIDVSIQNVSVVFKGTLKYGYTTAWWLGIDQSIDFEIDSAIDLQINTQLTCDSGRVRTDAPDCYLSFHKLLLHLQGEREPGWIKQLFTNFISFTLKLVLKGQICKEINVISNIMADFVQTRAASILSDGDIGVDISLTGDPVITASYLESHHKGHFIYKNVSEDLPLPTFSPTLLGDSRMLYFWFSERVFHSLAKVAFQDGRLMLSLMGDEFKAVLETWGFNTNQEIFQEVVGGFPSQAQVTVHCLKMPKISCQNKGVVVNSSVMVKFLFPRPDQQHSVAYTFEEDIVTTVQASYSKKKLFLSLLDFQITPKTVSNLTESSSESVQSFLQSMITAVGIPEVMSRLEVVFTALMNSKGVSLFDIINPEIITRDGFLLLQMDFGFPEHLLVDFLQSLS
Assay: Assay of CETP Inhibition Using Purified Components (Reconstituted Buffer Assay)
Assay type: biochemical
Details: transfer of [3H]CE from HDL to LDL, 2 hours at 37° C.
Procedure: Assay of CETP Inhibition Using Purified Components (Reconstituted Buffer Assay)
The ability of compounds to inhibit CETP activity was assessed using an in vitro assay that measured the rate of transfer of radiolabeled cholesteryl ester ([^3H]CE) from HDL donor particles to LDL acceptor particles. Details of the assay are provided by Glenn, K. C. et al. (Glenn and Melton, “Quantification of Cholesteryl Ester Transfer Protein (CETP): A) CETP Activity and B) Immunochemical Assay of CETP Protein,” Meth. Enzymol., 263, 339-351 (1996)). Human recombinant CETP can be obtained from the serum-free conditioned medium of CHO cells transfected with a cDNA for CETP and purified as described by Wang, S. et al. (J. Biol. Chem. 267, 17487-17490 (1992)). To measure CETP activity, [^3H]CE-labeled-HDL, LDL, CETP and assay buffer (50 mM tris(hydroxymethyl)aminomethane, pH 7.4; 150 mM sodium chloride; 2 mM ethylenediamine-tetraacetic acid (EDTA); 1% bovine serum albumin) were incubated in a final volume of 200 μL, for 2 hours at 37° C. in 96 well plates. Inhibitors were included in the assay by diluting from a 10 mM DMSO stock solution into 16% (v/v) aqueous DMSO so that the final concentration of inhibitor was 800 μM. The inhibitors were then diluted 1:1 with CETP in assay buffer, and then 25 μL of that solution was mixed with 175 μL of lipoprotein pool for assay. Following incubation, LDL was differentially precipitated by the addition of 50 μL of 1% (w/v) dextran sulfate/0.5 M magnesium chloride, mixed by vortex, and incubated at room temperature for 10 minutes. A potion of the solution (200 μL) was transferred to a filter plate (Millipore). After filtration, the radioactivity present in the precipitated LDL was measured by liquid scintillation counting. […] The rate of [^3H]CE transfer using this assay was linear with respect to time and CETP concentration, up to 25-30% of [^3H]CE transferred.
The potency of test compounds was determined by performing the above described assay in the presence of varying concentrations of the test compounds and determining the concentration required for 50% inhibition of transfer of [3H]CE from HDL to LDL. This value was defined as the IC50. The IC50 values determined from this assay are accurate when the IC50 is greater than 10 nM.

| IC50 | SMILES |
| --- | --- |
| > 100 µM | CC(C)N(Cc1cccc(OC(F)(F)F)c1)CC(O)C(F)(F)F (stereo not drawn) [Example 5] |
| 20 µM | OC(CN(Cc1cccc(OC(F)(F)F)c1)C1CC1)C(F)(F)F (stereo not drawn) [Example 4] |
| 80 µM | COC(=O)C=CCN(CC(O)C(F)(F)F)c1cccc(OC(F)(F)F)c1 (stereo not drawn) [Example 13] |
| 45 µM | CC(C)=CCN(CC(O)C(F)(F)F)c1cccc(OC(F)(F)F)c1 (stereo not drawn) [Example 8] |
| 60 µM | OC(CN(Cc1ccc(OC(F)(F)F)cc1)CC(O)C(F)(F)F)C(F)(F)F (stereo not drawn) [Example 17] |
| 15 µM | CC1CCC(N(Cc2cccc(C(F)(F)F)c2)CC(O)C(F)(F)F)CC1 (stereo not drawn) [Example 1, 3-[(4-methylcyclohexyl)[[(3-trifluoromethyl)phenyl]methyl]amino]-1,1,1-trifluoro-2-propanol] |
| 15 µM | OC(CN(Cc1cccc(C(F)(F)F)c1)CC(O)C(F)(F)F)C(F)(F)F (stereo not drawn) [Example 16] |
| 60 µM | C=C(CN(CC(O)C(F)(F)F)c1cccc(OC(F)(F)F)c1)C(=O)OC (stereo not drawn) [Example 12] |
| 55 µM | COCC=CCN(CC(O)C(F)(F)F)c1cccc(OC(F)(F)F)c1 (stereo not drawn) [Example 14] |
| 18 µM | CCCCCC=CCN(CC(O)C(F)(F)F)c1cccc(OC(F)(F)F)c1 (stereo not drawn) [Example 9] |
| 50 µM | C#CCN(CC(O)C(F)(F)F)c1cccc(OC(F)(F)F)c1 (stereo not drawn) [Example 10] |
| 45 µM | CC(C)CCN(CC(O)C(F)(F)F)c1cccc(OC(F)(F)F)c1 (stereo not drawn) [Example 11] |
| > 100 µM | OC(CN(Cc1ccccc1)CC(O)C(F)(F)F)C(F)(F)F (stereo not drawn) [Example 15, 1,1′-[(Phenylmethyl)imino]bis[3,3,3-trifluoro-2-propanol]] |
| > 100 µM | CCCN(Cc1cccc(OC(F)(F)F)c1)CC(O)C(F)(F)F (stereo not drawn) [Example 6] |
| 11 µM | CCc1cc(Oc2cccc(N(CC3CCCCC3)CC(O)C(F)(F)F)c2)ccc1Cl (stereo not drawn) [Example 18, 3-[[3-(4-chloro-3-ethylphenoxy)phenyl][3-cyclohexylmethyl]amino]-1,1,1-trifluoro-2-propanol] |

From US6787570B2, “Substituted N-cycloalkyl-N-benzyl aminoalcohol compounds useful for inhibiting cholesteryl ester transfer protein activity” (Pfizer, Inc., priority 1999, dated 2004)
